Data as given in patent US11006600B2, “Rice cultivar designated ‘CL272’” (Board of Supervisors of Louisiana State University and …, priority 2016, dated 2021).

System: rice cultivar 'CL272'
Assay: Herbicide tolerance and susceptibility characteristics of rice variety 'CL272'
Type: in vivo, Oryza sativa
Conditions: for response of 'CL272' rice to the herbicide (resistant / sensitive): at levels of the herbicide that would normally inhibit the growth of a rice plant; for resistance of 'CL272' rice to imidazolinone herbicides, general statement: in vivo
Description: Among others, the herbicide tolerance and susceptibility characteristics of ‘CL272’ include or are expected to include the following. These characteristics are in some cases based on actual observations to date, and in other cases reflect assumptions based on direct descent from ‘CL161’: […]

Compound	response of 'CL272' rice to the herbicide (resistant / sensitive)	resistance of 'CL272' rice to imidazolinone herbicides, general statement
CCOC(=O)c1ccccc1S(=O)(=O)NC(=O)Nc1nc(Cl)cc(OC)n1 [chlorimuron ethyl]	sensitive	
COCc1cnc(C2=NC(C)(C(C)C)C(=O)N2)c(C(=O)O)c1 (centres unmarked) [imazamox]	resistant	highly resistant
Cc1cnc(C2=NC(=O)C(C)(C(C)C)N2)c(C(=O)O)c1 (centres unmarked) [imazapic]	resistant	
CC(C)C1(C)N=C(c2ncccc2C(=O)O)NC1=O (centres unmarked) [imazapyr]	resistant	
CC(C)C1(C)N=C(c2nc3ccccc3cc2C(=O)O)NC1=O (centres unmarked) [imazaquin]	resistant	
CCc1cnc(C2=NC(C)(C(C)C)C(=O)N2)c(C(=O)O)c1 (centres unmarked) [imazethapyr]	resistant	highly resistant
COC(=O)c1ccccc1S(=O)(=O)NC(=O)Nc1nc(C)nc(OC)n1 [metsulfuron methyl]	resistant	
COc1cc(OC)nc(NC(=O)NS(=O)(=O)c2ncccc2C(=O)N(C)C)n1 [nicosulfuron]	resistant	
CCS(=O)(=O)c1cccnc1S(=O)(=O)NC(=O)Nc1nc(OC)cc(OC)n1 [rimsulfuron]	sensitive	
COC(=O)c1ccccc1S(=O)(=O)NC(=O)Nc1nc(C)cc(C)n1 [sulfometuron methyl]	sensitive	
COC(=O)c1sccc1S(=O)(=O)NC(=O)Nc1nc(C)nc(OC)n1 [thifensulfuron methyl]	resistant	
COC(=O)c1ccccc1S(=O)(=O)NC(=O)N(C)c1nc(C)nc(OC)n1 [tribenuron methyl]	resistant	
